Assay [1] deals with BMP-2-inducible protein kinase (Homo sapiens, UniProt Q9NSY1). Kind of assay: Affinity Biochemical interaction (Competition binding assay) EUB0000166b BMP2K. The arrangement: mode of action Negative control for SGC-AAK1-1, recommended concentration 1 uM.
The target of assay [2] is AP2-associated protein kinase 1 (Homo sapiens, UniProt Q2M2I8). As to the kind of experiment: Affinity Biochemical interaction (Competition binding assay) EUB0000166b AAK1. The arrangement: mode of action Negative control for SGC-AAK1-1, recommended concentration 1 uM.
Assay [3] concerns the target Dual specificity protein kinase CLK1 (Homo sapiens, UniProt P49759). Kind of assay: Affinity Biochemical interaction (NanoBRET assay (in HEK293T cells)) EUB0000009b CLK1. It is filed as cell-based. The arrangement: mode of action Negative control for MU1210, recommended concentration 1 uM. (In general: In BRET a luciferase serves as donor, and the signal depends on an acceptor being close.)

In assay [4] the target is Dual specificity protein kinase CLK4 (Homo sapiens, UniProt Q9HAZ1). As to the kind of experiment: Affinity Biochemical interaction (NanoBRET assay (in HEK293T cells)) EUB0000009b CLK4. It is filed as cell-based. The arrangement: mode of action Negative control for MU1210, recommended concentration 1 uM.
For assay [5], the target named is Dual specificity protein kinase CLK2 (Homo sapiens, UniProt P49760). Kind of assay: Affinity Biochemical interaction (NanoBRET assay (in HEK293T cells)) EUB0000009b CLK2. It is filed as cell-based. The arrangement: mode of action Negative control for MU1210, recommended concentration 1 uM.
The target in assay [6] is Bifunctional epoxide hydrolase 2 (Homo sapiens, UniProt P34913). Kind of assay: Affinity Biochemical interaction (Human soluble epoxide hydrolase inhibition) EUB0000541a EPHX2. Also noted: mode of action Negative control for BI-1935, recommended concentration 100 nM.
Assay [7] concerns the target 5'-AMP-activated protein kinase catalytic subunit alpha-1 (Homo sapiens, UniProt Q13131). As to the kind of experiment: Affinity Biochemical interaction (Biochemical PRKAA1 assay (10 µM ATP)) EUB0000707a PRKAA1. Also noted: mode of action Negative control for BAY-3827, recommended concentration 100 nM.
Assay [8] has as its target Sodium/hydrogen exchanger 1 (Homo sapiens, UniProt P19634). Kind of assay: Affinity Biochemical interaction (pHi change assay) EUB0000545a SLC9A1. Also noted: mode of action Negative control for BI-9627, recommended concentration 1 uM.
Assay [9] concerns the target Fatty-acid amide hydrolase 1 (Homo sapiens, UniProt O00519). As to the kind of experiment: Affinity Biochemical interaction (Binding assay) EUB0000540a FAAH. Also noted: mode of action Negative control for PF-04457845, recommended concentration 1 uM.
The target in assay [10] is T1, Transient receptor potential cation channel subfamily A member 1 (Homo sapiens, UniProt O75762). As to the kind of experiment: Affinity Biochemical interaction (FLIPR-based Ca2+ assay (activated by 30 µM AITC)) EUB0000547a TRPA1. Also noted: mode of action Negative control for A-079, recommended concentration 1 uM.
In assay [11] the target is Peripheral plasma membrane protein CASK (Homo sapiens, UniProt O14936). Kind of assay: Affinity Biochemical interaction (Isothermal titration calorimetry (ITC)) EUB0000723a CASK. Also noted: mode of action Inhibitor, recommended concentration 1 uM. (Isothermal titration calorimetry measures the heat released or taken up as one component is titrated into another.)
For assay [12], the target named is Protein farnesyltransferase subunit beta (Homo sapiens, UniProt P49356). As to the kind of experiment: Affinity Biochemical interaction (Scintillation proximity assay (SPA)) EUB0000736a FNTB. Also noted: mode of action Negative control for ABT-100, recommended concentration 1 uM. (SPA uses beads or plates that emit light when radiolabelled molecules are held near them.)

Assay [13] concerns the target Methionine aminopeptidase 2 (Homo sapiens, UniProt P50579). Kind of assay: Affinity Biochemical interaction (Biochemical activity assay (addition of Mn)) EUB0000303b METAP2. Also noted: mode of action Inhibitor, recommended concentration 1 uM.
Assay [14] addresses Alpha-1D adrenergic receptor (Homo sapiens, UniProt P25100). As to the kind of experiment: Affinity Biochemical interaction (Binding assay) EUB0000300bCl ADRA1D. The arrangement: mode of action Antagonist, recommended concentration 1 uM.
Another assay deals with T2, Protein AF-9 (Homo sapiens, UniProt P42568).
T2 sequence (P42568 whole entry): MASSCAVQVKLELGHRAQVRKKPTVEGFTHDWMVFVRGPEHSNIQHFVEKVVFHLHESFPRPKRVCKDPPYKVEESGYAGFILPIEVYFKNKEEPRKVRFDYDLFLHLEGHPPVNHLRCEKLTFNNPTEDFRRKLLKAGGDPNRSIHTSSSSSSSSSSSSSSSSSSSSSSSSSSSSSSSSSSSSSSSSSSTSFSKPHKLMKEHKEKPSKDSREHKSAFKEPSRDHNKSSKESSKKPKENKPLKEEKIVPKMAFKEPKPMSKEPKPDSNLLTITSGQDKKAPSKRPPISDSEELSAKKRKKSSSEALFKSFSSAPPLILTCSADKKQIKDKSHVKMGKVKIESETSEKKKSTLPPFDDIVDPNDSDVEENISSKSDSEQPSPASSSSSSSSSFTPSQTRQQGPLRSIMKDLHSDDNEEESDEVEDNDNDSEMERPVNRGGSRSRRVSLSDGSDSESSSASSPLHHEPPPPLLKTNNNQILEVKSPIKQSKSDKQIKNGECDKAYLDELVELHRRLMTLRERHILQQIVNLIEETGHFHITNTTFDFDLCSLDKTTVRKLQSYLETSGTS

Assay [15] has as its target Transient receptor potential cation channel subfamily M member 8 (Homo sapiens, UniProt Q7Z2W7). As to the kind of experiment: Affinity Biochemical interaction (Enzymatic assay) EUB0000546a TRPM8. Also noted: mode of action Negative control for PF-05105679, recommended concentration 1 uM.
A further assay addresses Cannabinoid receptor 1 (Homo sapiens, UniProt P21554). Kind of assay: Affinity Biochemical interaction (Radioligand binding assay (CNR1, inverse agonism)) EUB0000316b CNR1. Also noted: mode of action Negative control for MRL-650, recommended concentration 1 uM.
The target in assay [16] is T1, Transient receptor potential cation channel subfamily A member 1. Kind of assay: Affinity Biochemical interaction (FLIPR-based Ca2+ assay (activated by 30 µM AITC)) EUB0000308b TRPA1. The arrangement: mode of action Antagonist, recommended concentration 1 uM.
Another assay deals with Integrin alpha-L (Homo sapiens, UniProt P20701). As to the kind of experiment: Affinity Biochemical interaction (ITGAL binding assay (inhibition of LFA-1 binding to ICAM-1)) EUB0000549a ITGAL. The arrangement: mode of action Negative control for BI-1950, recommended concentration 100 nM.
Assay [17] deals with Tyrosine-protein kinase Mer (Homo sapiens, UniProt Q12866).

T1 sequence (O75762 whole entry): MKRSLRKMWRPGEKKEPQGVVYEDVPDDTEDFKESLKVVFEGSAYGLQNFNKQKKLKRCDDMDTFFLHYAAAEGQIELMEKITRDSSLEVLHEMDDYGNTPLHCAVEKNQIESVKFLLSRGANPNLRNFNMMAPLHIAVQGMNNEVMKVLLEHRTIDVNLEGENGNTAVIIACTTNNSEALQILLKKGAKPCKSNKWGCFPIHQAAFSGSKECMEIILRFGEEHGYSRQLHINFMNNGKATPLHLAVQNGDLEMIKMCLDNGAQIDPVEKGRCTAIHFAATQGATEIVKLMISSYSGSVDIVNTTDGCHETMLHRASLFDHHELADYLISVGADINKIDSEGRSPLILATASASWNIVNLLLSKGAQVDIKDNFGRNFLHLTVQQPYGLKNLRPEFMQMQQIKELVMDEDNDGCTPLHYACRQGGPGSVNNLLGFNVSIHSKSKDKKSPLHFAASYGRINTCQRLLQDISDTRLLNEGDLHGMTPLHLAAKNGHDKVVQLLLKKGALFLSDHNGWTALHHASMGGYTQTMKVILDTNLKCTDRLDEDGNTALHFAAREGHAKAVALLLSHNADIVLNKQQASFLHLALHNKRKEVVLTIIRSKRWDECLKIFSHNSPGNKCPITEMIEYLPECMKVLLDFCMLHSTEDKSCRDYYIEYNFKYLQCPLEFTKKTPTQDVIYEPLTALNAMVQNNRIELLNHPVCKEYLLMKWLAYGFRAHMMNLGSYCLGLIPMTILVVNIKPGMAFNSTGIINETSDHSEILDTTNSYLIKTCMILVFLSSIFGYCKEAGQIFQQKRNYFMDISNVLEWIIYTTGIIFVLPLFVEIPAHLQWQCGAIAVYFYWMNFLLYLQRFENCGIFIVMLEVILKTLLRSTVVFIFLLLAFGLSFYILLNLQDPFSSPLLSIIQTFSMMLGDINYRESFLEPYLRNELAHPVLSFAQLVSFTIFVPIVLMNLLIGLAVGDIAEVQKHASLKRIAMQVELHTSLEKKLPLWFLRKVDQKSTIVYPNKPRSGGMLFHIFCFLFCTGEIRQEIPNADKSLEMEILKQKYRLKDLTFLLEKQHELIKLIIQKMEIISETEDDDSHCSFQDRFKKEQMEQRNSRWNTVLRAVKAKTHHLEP
Fatty-acid amide hydrolase 1, sequence (O00519 whole entry): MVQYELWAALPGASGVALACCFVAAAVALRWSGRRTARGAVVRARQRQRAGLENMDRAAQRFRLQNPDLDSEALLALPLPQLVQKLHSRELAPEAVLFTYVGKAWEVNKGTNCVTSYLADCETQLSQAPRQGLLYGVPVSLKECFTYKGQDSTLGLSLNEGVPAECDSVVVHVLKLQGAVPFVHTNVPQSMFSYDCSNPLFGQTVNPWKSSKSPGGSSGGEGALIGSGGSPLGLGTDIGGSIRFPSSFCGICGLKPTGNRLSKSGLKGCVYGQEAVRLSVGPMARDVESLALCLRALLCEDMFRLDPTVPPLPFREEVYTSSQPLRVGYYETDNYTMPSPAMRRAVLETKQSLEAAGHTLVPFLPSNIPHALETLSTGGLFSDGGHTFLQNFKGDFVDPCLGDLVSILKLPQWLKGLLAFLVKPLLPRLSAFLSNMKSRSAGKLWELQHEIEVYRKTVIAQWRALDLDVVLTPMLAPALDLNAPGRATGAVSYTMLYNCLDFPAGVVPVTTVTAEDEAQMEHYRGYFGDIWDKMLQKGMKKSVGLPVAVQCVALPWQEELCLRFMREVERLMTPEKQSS
Cannabinoid receptor 1, sequence (P21554 whole entry): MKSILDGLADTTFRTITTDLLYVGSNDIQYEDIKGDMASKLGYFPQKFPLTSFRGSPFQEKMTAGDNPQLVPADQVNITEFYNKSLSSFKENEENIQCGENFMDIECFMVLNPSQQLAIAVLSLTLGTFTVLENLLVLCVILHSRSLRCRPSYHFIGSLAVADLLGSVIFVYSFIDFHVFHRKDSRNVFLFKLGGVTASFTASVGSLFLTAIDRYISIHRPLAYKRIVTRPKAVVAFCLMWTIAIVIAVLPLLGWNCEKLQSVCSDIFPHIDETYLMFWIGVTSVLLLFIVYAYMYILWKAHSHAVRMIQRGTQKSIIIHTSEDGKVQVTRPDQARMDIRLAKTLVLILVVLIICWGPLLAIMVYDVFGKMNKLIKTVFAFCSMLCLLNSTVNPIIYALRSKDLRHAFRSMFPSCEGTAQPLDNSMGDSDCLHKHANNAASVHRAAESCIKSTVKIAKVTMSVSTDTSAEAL
Bifunctional epoxide hydrolase 2, sequence (P34913 whole entry): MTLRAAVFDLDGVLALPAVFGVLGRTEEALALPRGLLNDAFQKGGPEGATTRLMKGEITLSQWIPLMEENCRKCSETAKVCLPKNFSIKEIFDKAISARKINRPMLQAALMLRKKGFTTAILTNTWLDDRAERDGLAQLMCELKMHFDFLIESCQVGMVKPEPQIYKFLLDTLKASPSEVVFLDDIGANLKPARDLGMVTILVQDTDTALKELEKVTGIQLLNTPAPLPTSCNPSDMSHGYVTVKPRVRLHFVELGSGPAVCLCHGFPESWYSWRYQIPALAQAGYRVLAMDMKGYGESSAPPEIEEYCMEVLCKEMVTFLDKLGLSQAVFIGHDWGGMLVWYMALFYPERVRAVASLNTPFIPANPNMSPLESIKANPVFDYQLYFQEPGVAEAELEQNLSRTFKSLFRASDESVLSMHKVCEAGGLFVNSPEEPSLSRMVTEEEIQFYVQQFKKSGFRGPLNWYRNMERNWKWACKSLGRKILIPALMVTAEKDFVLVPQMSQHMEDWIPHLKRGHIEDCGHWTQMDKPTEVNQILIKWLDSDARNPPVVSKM
BMP-2-inducible protein kinase, sequence (Q9NSY1 whole entry, the tested form may be a part): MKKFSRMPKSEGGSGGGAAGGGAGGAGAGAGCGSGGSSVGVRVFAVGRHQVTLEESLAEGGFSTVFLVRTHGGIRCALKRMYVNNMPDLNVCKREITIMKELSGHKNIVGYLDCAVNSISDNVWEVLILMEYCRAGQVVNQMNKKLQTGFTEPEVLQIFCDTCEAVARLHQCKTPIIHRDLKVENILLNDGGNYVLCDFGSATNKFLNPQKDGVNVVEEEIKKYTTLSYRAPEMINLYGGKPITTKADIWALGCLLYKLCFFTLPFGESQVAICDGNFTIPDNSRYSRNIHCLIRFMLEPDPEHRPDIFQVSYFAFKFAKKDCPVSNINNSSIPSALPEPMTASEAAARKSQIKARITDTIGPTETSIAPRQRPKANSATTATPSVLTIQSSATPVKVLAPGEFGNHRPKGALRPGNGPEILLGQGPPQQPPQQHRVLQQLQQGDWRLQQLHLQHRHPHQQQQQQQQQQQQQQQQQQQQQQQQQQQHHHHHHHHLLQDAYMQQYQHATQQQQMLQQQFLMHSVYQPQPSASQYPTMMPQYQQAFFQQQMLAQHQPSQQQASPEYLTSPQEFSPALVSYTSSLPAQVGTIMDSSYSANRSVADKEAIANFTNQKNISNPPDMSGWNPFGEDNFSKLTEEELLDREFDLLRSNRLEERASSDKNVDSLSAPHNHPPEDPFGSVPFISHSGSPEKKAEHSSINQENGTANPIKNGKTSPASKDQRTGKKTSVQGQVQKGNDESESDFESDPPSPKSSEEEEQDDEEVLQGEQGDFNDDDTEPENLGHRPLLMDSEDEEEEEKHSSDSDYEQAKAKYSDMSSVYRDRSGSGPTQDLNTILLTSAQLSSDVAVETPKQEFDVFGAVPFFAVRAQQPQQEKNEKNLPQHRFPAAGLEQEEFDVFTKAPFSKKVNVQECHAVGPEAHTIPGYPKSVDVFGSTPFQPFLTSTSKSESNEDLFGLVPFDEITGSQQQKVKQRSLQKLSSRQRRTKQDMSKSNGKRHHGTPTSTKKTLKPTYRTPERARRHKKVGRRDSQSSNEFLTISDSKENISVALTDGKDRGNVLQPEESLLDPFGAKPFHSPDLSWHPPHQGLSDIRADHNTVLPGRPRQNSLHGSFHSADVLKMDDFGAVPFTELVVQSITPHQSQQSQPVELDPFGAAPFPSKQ
Sodium/hydrogen exchanger 1, sequence (P19634 whole entry): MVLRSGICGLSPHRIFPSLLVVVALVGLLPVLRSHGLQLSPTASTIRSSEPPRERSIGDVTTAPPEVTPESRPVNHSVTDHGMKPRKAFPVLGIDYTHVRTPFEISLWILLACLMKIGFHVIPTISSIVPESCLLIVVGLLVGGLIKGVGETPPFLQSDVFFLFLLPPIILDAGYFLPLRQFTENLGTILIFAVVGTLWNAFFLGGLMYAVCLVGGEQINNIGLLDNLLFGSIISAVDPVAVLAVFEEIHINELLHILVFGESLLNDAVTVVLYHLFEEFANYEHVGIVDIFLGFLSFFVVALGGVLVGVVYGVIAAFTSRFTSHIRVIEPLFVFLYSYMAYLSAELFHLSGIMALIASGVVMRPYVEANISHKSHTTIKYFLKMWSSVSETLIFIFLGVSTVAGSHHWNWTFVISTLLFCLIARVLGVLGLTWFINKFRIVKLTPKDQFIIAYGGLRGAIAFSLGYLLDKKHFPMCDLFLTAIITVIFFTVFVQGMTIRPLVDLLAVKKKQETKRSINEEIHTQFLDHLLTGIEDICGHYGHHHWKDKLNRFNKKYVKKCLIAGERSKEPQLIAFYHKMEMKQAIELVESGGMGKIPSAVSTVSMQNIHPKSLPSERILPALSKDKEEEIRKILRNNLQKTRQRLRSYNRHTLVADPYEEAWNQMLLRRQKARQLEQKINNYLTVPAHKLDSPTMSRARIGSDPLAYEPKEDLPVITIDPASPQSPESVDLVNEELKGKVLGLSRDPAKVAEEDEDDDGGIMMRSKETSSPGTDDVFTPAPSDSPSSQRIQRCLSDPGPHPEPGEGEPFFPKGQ

`CC(C)C(=O)Nc1n[nH]c2cc(-c3cccc(NS(=O)(=O)C4CC4)c3)ccc12`: the figures for the dissociation constant Kd in assay [1] and in assay [2] were greater than 10000 nM and 8800 nM, respectively. As for `Cn1cc(-c2ccc3occ(-c4ccccc4-c4ccccc4)c3n2)cn1`, the Ki in [3], in [4] and in assay [5] was greater than 10000 nM throughout. For the molecule `O=C(Nc1ccc(-n2nc(-c3cccnc3)cc2C(F)(F)F)cn1)c1ccc(-c2ccccc2)c(F)c1` [BI 2049], the IC50 (in general, the concentration that inhibits the measured activity by half) in assay [6] was greater than 3000 nM. Molecule `CC1=C(C#N)C(c2ccc3c(c2)c(NC(=O)c2ccccc2C)nn3C)C(C#N)=C(C)N1` [BAY-974] registered a concentration for half-maximal inhibition (IC50) in [7] greater than 20000 nM. In turn, `CC(=O)N1CCC(c2ccc(C(=O)NC3=NCCN3)cc2C(F)(F)F)CC1` [BI 0054] had an IC50 in assay [8] greater than 10000 nM. In [9], `O=C(Nc1cccnn1)N1CC(C/C=C/c2cncc(Oc3ccc(C(F)(F)F)cn3)n2)C1` showed an IC50 greater than 100000 nM.

As to `CCC(=N\O)/C(C)=C/c1ccc(F)c(C)c1` [A-226], in assay [10], the IC50 is greater than 100000 nM.

Regarding `O=C(NCCCN1CCOC1=O)c1cnc(NCc2cc(Br)ccc2Br)nc1NC1CCCC1`, binding in assay [11] was put at a Kd of 22 nM. On to `Cn1cncc1[C@@](O)(COc1ccc(C#N)cc1-c1ccc(OC(F)(F)F)cc1)c1ccc(C#N)cc1` [A-108], for which the IC50 in [12] is greater than 100000 nM. `Cc1nc(N2CC[C@H](O)C2)ncc1-c1cc(C(F)(F)F)cc2[nH]ncc12` had an IC50 in assay [13] of 7 nM. Turning to `C[C@@H](c1cccc(CN)c1)n1cc(Cl)cc(C(N)=O)c1=N`, in assay [14], affinity was put at a Ki of 1.6 nM. On Protein AF-9, `CN(C)C(=O)c1ccc(-c2cc(C(=O)N[C@@H]3CCc4ccccc43)no2)cc1O` had an IC50 of 160 nM. This counts as sub-micromolar.

Molecule `C[C@H](c1ccc(F)cc1)N(Cc1ccc(Cl)c(C(=O)O)c1)C(=O)c1cnc2ccccc2c1` [PF-05257137] returned a half-inhibitory concentration (IC50) in [15] greater than 10000 nM.

At Cannabinoid receptor 1, `CC(=O)c1c(NS(C)(=O)=O)c2cc(-c3ccc(Cl)cc3)c(-c3ccc(Cl)cc3Cl)nc2n(C)c1=O` [MRL-CB1-NC] had an IC50 of 32.5 nM. For `Clc1cccc(-c2nnnn2Cc2cccnc2)c1Cl`, the concentration for half-maximal inhibition (IC50) in assay [16] is 67 nM. That is a double-digit nanomolar value. Regarding `C[C@@]1(Cc2ccc(C#N)cc2)C(=O)N(c2cc(Cl)cc(Cl)c2)c2ncc(C(=O)NC3(c4nc(C5CCC5)no4)CC3)n21` [BI 9446], the dissociation constant (Kd) – broadly, the constant that tells how readily two partners part at equilibrium – at Integrin alpha-L is greater than 1000 nM. In turn, `CCOc1cn(-c2ccc(F)cc2C)nc1C(=O)Nc1ccc(Oc2ccnc3cc(OC)c(OC)cc23)c(F)c1` showed an IC50 in [17] of 5 nM.
